Results as given in patent US6376497B1, “Antifungal azole derivatives having a fluorinated vinyl group and process for preparing same” (Korea Research Institute of Chemical Technology, priority 1999, dated 2002).
Converted amounts (≈) assume the structure as drawn.

Columns and labels:
Assay in all cases: In vitro antifungal activity, microbroth dilution MIC
Type in all cases: cell-based
[1] = test system: Cryptococcus neoformans B. 42419; conditions: 4 to 48 hours; for Minimal inhibitory concentration (MIC): Cry. neoformans B. 42419, RPMI-1640, 35° C.; for Minimal inhibitory concentration(MIC), Cry. neoformans B. 42419: RPMI-1640, 35° C., no growth observed
Procedure: (§1) In vitro antifungal activities of the inventive antifungal compounds were evaluated using the test strains shown in Table VIII by the following microbroth dilution method which is a modified version of the procedure recommended by National Committee for Clinical Laboratory Standards(see National Committee for Clinical Laboratory Standards, 1992, Reference methods for broth dilution antifungal susceptibility testing of yeasts, Proposed standard M27-P, National Committee for clinical laboratory standards, Villanova, Pa; and National Committee for Clinical Laboratory Standards, 1995, Reference methods for broth dilution antifungal susceptibility testing of yeasts. Tentative standard M27-T, National Committee for clinical laboratory standards, Villanova, Pa).
(§2) Sabourad Dextrose Agar(Difco) was used as a culture medium, and RPMI-1640 broth(Sigma. Co. w/L-glutamine, wo/NaHCO3)(0.165 M MOPS, pH 7.0), as a dilution medium.
(§3) Each of the test strains were subcultured in Sabourad Dextrose Agar medium twice and a stain sample was taken from prominent colonies and suspended in sterile physiological saline solution in a cap tube. The turbidity of the suspension was adjusted to that of the Mcfarland 0.5 standard sample(approximately 10^6 CFU/ml). Then the suspension was diluted 500-fold with sterile RPMI-1640 liquid medium to 2×10^3 CFU/ml.
(§4) Each of the test compounds(the compounds obtained in Examples 1 to 150 and comparative compounds, i.e., fluconazole(FCZ) and itraconazole (ICZ)), was dissolved in DMSO to give a stock solution having a concentration of 4000 μg/ml and the stock solution was successively diluted to obtain test solutions having test compound concentrations of 200, 100, 50, 25, 12.5, 6.25, 3.13, 1.56, 0.78, 0.39, 0.20 and 0.10 μg/ml, respectively.
(§5) 0.1 ml portion of the test solutions were added to the wells of a sterile 96 well plate. Then, 0.1 ml portion of each of the test strain solutions were added successively to the wells and the plate was incubated at 35° C. for 4 to 48 hours.
(§6) Minimal inhibitory concentration(MIC) of each compound was defined as the concentration of the test compound where no growth of the strain could be observed.

[2] = test system: Candida albicans IFO. 1385; conditions: 4 to 48 hours; for Minimal inhibitory concentration (MIC): C. albicans IFO. 1385, RPMI-1640, 35° C.; for Minimal inhibitory concentration(MIC), C. albicans IFO. 1385: RPMI-1640, 35° C., no growth observed
Procedure: as §1, §2, §3, §4, §5, §6

[3] = test system: Aspergillus niger A. 16404; conditions: 4 to 48 hours; for Minimal inhibitory concentration (MIC): A. niger A. 16404, RPMI-1640, 35° C.; for Minimal inhibitory concentration(MIC), A. niger A. 16404: RPMI-1640, 35° C., no growth observed
Procedure: as §1, §2, §3, §4, §5, §6

[4] = test system: Cryptococcus neoformans A. 34144; conditions: 4 to 48 hours; for Minimal inhibitory concentration (MIC): Cry. neoformans A. 34144, RPMI-1640, 35° C.; for Minimal inhibitory concentration(MIC), Cry. neoformans A. 34144: RPMI-1640, 35° C., no growth observed
Procedure: as §1, §2, §3, §4, §5, §6

Candida krusei K. 11655 = conditions: 4 to 48 hours; for Minimal inhibitory concentration (MIC): C. krusei K. 11655, RPMI-1640, 35° C.; for Minimal inhibitory concentration(MIC), C. krusei K. 11655: RPMI-1640, 35° C., no growth observed
Procedure: as §1, §2, §3, §4, §5, §6

[5] = test system: Candida tropicalis A. 13803; conditions: 4 to 48 hours; for Minimal inhibitory concentration (MIC): C. tropicalis A. 13803, RPMI-1640, 35° C.; for Minimal inhibitory concentration(MIC), C. tropicalis A. 13803: RPMI-1640, 35° C., no growth observed
Procedure: as §1, §2, §3, §4, §5, §6

Candida albicans C1-2 = conditions: 4 to 48 hours; for Minimal inhibitory concentration (MIC): C. albicans C1-2, RPMI-1640, 35° C.; for Minimal inhibitory concentration(MIC), C. albicans C1-2: RPMI-1640, 35° C., no growth observed
Procedure: as §1, §2, §3, §4, §5, §6

[6] = test system: Candida parapsitosis A. 7330; conditions: 4 to 48 hours; for Minimal inhibitory concentration (MIC): C. parapsitosis A. 7330, RPMI-1640, 35° C.; for Minimal inhibitory concentration(MIC), C. parapsitosis A. 7330: RPMI-1640, 35° C., no growth observed
Procedure: as §1, §2, §3, §4, §5, §6

[7] = test system: Trichophyton mentagrophytes B. 32663; conditions: 4 to 48 hours; for Minimal inhibitory concentration (MIC): T. mentagrophytes B. 32663, RPMI-1640, 35° C.; for Minimal inhibitory concentration(MIC), T. mentagrophytes B. 32663: RPMI-1640, 35° C., no growth observed
Procedure: as §1, §2, §3, §4, §5, §6

[8] = test system: Torulopsis glabrata B. 16205; conditions: 4 to 48 hours; for Minimal inhibitory concentration (MIC): T. glabrata B. 16205, RPMI-1640, 35° C.; for Minimal inhibitory concentration(MIC), T. glabrata B. 16205: RPMI-1640, 35° C., no growth observed
Procedure: as §1, §2, §3, §4, §5, §6

[9] = test system: Cryptococcus neoformans IFM. 40092; conditions: 4 to 48 hours; for Minimal inhibitory concentration (MIC): Cry. neoformans IFM. 40092, RPMI-1640, 35° C.; for Minimal inhibitory concentration(MIC), Cry. neoformans IFM. 40092: RPMI-1640, 35° C., no growth observed
Procedure: as §1, §2, §3, §4, §5, §6

[10] = test system: Candida albicans A. 10231; conditions: 4 to 48 hours; for Minimal inhibitory concentration (MIC): C. albicans A. 10231, RPMI-1640, 35° C.; for Minimal inhibitory concentration(MIC), C. albicans A. 10231: RPMI-1640, 35° C., no growth observed
Procedure: as §1, §2, §3, §4, §5, §6

[11] = test system: Trichophyton mentagrophytes A. 9129; conditions: 4 to 48 hours; for Minimal inhibitory concentration (MIC): T. mentagrophytes A. 9129, RPMI-1640, 35° C.; for Minimal inhibitory concentration(MIC), T. mentagrophytes A. 9129: RPMI-1640, 35° C., no growth observed
Procedure: as §1, §2, §3, §4, §5, §6

[12] = test system: Aspergillus furnigatus B. 19119; conditions: 4 to 48 hours; for Minimal inhibitory concentration (MIC): A furnigatus B. 19119, RPMI-1640, 35° C.; for Minimal inhibitory concentration(MIC), A furnigatus B. 19119: RPMI-1640, 35° C., no growth observed
Procedure: as §1, §2, §3, §4, §5, §6

[13] = test system: Candida pseudotropicalis K. 11658; conditions: 4 to 48 hours; for Minimal inhibitory concentration (MIC): C. pseudotropicalis K. 11658, RPMI-1640, 35° C.; for Minimal inhibitory concentration(MIC), C. pseudotropicalis K. 11658: RPMI-1640, 35° C., no growth observed
Procedure: as §1, §2, §3, §4, §5, §6

Row | Compound | Minimal inhibitory concentration (MIC) [1] [µg/mL] | Minimal inhibitory concentration (MIC) [2] [µg/mL] | Minimal inhibitory concentration (MIC) [3] [µg/mL] | Minimal inhibitory concentration (MIC) [4] [µg/mL] | Minimal inhibitory concentration (MIC) (Candida krusei K. 11655) [µg/mL] | Minimal inhibitory concentration (MIC) [5] [µg/mL] | Minimal inhibitory concentration (MIC) (Candida albicans C1-2) [µg/mL] | Minimal inhibitory concentration (MIC) [6] [µg/mL] | Minimal inhibitory concentration (MIC) [7] [µg/mL] | Minimal inhibitory concentration (MIC) [8] [µg/mL] | Minimal inhibitory concentration (MIC) [9] [µg/mL] | Minimal inhibitory concentration (MIC) [10] [µg/mL] | Minimal inhibitory concentration (MIC) [11] [µg/mL] | Minimal inhibitory concentration (MIC) [12] [µg/mL] | Minimal inhibitory concentration (MIC) [13] [µg/mL] | Minimal inhibitory concentration(MIC), Cry. neoformans B. 42419 [1] [µg/mL] | Minimal inhibitory concentration(MIC), C. albicans IFO. 1385 [2] [µg/mL] | Minimal inhibitory concentration(MIC), A. niger A. 16404 [3] [µg/mL] | Minimal inhibitory concentration(MIC), Cry. neoformans A. 34144 [4] [µg/mL] | Minimal inhibitory concentration(MIC), C. krusei K. 11655 (Candida krusei K. 11655) [µg/mL] | also measured
1 | Cc1cc(C)cc(C(=C(F)OCC2COC(Cn3ccnc3)(c3ccc(Cl)cc3Cl)O2)C(F)(F)F)c1 (stereo not drawn) [Ex. 24] | 1.56 (≈ 2.86 µM) | 0.78 (≈ 1.43 µM) | 100 (≈ 183 µM) | 0.78 (≈ 1.43 µM) | >100 | 25.0 (≈ 45.8 µM) | 6.25 (≈ 11.5 µM) | >100 | 6.25 (≈ 11.5 µM) | 12.5 (≈ 22.9 µM) | 0.39 (≈ 0.715 µM) | 6.25 (≈ 11.5 µM) | 12.5 (≈ 22.9 µM) | 50.0 (≈ 91.7 µM) | 100 (≈ 183 µM) | – | – | – | – | – | –
2 | FC(=C(c1cc(Cl)cc(Cl)c1)C(F)(F)F)N1CCN(c2ccc(OCC3COC(Cn4ccnc4)(c4ccc(Cl)cc4Cl)O3)cc2)CC1 (mixture of isomers) [Ex. 136] | – | – | – | – | – | – | – | – | – | – | – | – | – | – | – | >100 | >100 | >100 | >100 | >100 | Minimal inhibitory concentration(MIC), C. tropicalis A. 13803 [5]: >100 µg/mL; Minimal inhibitory concentration(MIC), C. albicans C1-2 (Candida albicans C1-2): >100 µg/mL; Minimal inhibitory concentration(MIC), C. parapsitosis A. 7330 [6]: >100 µg/mL; Minimal inhibitory concentration(MIC), T. mentagrophytes B. 32663 [7]: >100 µg/mL; Minimal inhibitory concentration(MIC), T. glabrata B. 16205 [8]: >100 µg/mL; Minimal inhibitory concentration(MIC), Cry. neoformans IFM. 40092 [9]: 1.56 µg/mL; Minimal inhibitory concentration(MIC), C. albicans A. 10231 [10]: >100 µg/mL; Minimal inhibitory concentration(MIC), T. mentagrophytes A. 9129 [11]: >100 µg/mL; Minimal inhibitory concentration(MIC), A furnigatus B. 19119 [12]: >100 µg/mL; Minimal inhibitory concentration(MIC), C. pseudotropicalis K. 11658 [13]: >100 µg/mL
3 | (E&Z) 1-{4-[cis-2-(2,4-dichlorophenyl)-2-(1H-1-imidazolylmethyl)-1,3-dioxolan-4-ylmethoxy]-phenoxy}-1,3,3,3-tetrafluoro-2-phenyl-1-propene [Example 19] | 0.78 | 0.78 | 3.13 | 1.56 | 50.0 | 25.0 | 6.25 | >100 | 0.78 | 3.13 | 0.20 | 6.25 | 1.56 | 1.56 | 25.0 | – | – | – | – | – | –
4 | FC(Oc1ccc(OCC2COC(Cn3ccnc3)(c3ccc(F)cc3F)O2)cc1)=C(c1ccc(Oc2ccccc2)cc1)C(F)(F)F (mixture of isomers) [Ex. 113] | – | – | – | – | – | – | – | – | – | – | – | – | – | – | – | 3.13 | 3.13 | >100 | 1.56 | >100 | Minimal inhibitory concentration(MIC), C. tropicalis A. 13803 [5]: >100 µg/mL; Minimal inhibitory concentration(MIC), C. albicans C1-2 (Candida albicans C1-2): >100 µg/mL; Minimal inhibitory concentration(MIC), C. parapsitosis A. 7330 [6]: >100 µg/mL; Minimal inhibitory concentration(MIC), T. mentagrophytes B. 32663 [7]: 12.5 µg/mL; Minimal inhibitory concentration(MIC), T. glabrata B. 16205 [8]: >100 µg/mL; Minimal inhibitory concentration(MIC), Cry. neoformans IFM. 40092 [9]: 0.39 µg/mL; Minimal inhibitory concentration(MIC), C. albicans A. 10231 [10]: >100 µg/mL; Minimal inhibitory concentration(MIC), T. mentagrophytes A. 9129 [11]: 25.0 µg/mL; Minimal inhibitory concentration(MIC), A furnigatus B. 19119 [12]: >100 µg/mL; Minimal inhibitory concentration(MIC), C. pseudotropicalis K. 11658 [13]: 100 µg/mL
